Measurements taken from PubChem BioAssay AID246 (DTP/NCI, 2004).
“And” between values parts separate entries of the source, which are not always exact repeats. Equal values may be shown once. Inconclusive results and toxic doses are left out.

Test system: BDF1 mice, P1081 chloroleukemia ip, survival T/C
Experiment: NCI In Vivo Anticancer Drug Screen. Data for tumor model P1081 Chloroleukemia (intraperitoneal) in B6D2F1 (BDF1) mice
Conditions: endpoint: mean survival time, vehicle: saline, higher = longer survival
Description: The antitumor activity of compounds was measured in mice bearing transplantable tumors. Survival or tumor size were measured and the results are expressed as the measurement made in the treated group (T) divided by the measurement made in the vehicle treated control group (C). The tumor model used in this assay is P1081 Chloroleukemia (intraperitoneal) in B6D2F1 (BDF1) mice

N=[N+]=CC(=O)OCC(N)C(=O)O (stereo unspecified)
T/C (dose: 0.94 mg/kg/injection, schedule: Q01DX Z (ip)): 113 % of control | T/C (dose: 1.25 mg/kg/injection, schedule: Q01DX Z (ip)): 118 % of control and 122 % of control | T/C (dose: 2.5 mg/kg/injection, schedule: Q01DX Z (ip)): 107 % of control and 117 % of control | T/C (dose: 3.75 mg/kg/injection, schedule: Q01DX Z (ip)): 160 % of control | T/C (dose: 12.5 mg/kg/injection, schedule: Q01DX010 (ip)): 175 % of control | T/C (dose: 25.0 mg/kg/injection, schedule: Q01DX010 (ip)): 90 % of control and 95 % of control
